Assay results: PMC11589570, “Critical assessment of LC3/GABARAP ligands used for degrader development and ligandability of LC3/GABARAP binding pockets” (Nature Communications, 2024)
Several values for one entry are separate records, joined by “and”; a condition that tells them apart may be missing. Equal entries are not always repeated.

What was measured:
[1] = tested on: U2OS cells; test: Cell growth assay (IncuCyte confluence over 72 h); type: cell-based; parameters: key to U2OS cell growth: % of well area covered by cells (confluence)
Method: Cell growth assay: Cell confluence (phase) from RPE1 (hTERT RPE-1, ATCC CLR_4000) or U2OS (ATCC, HTB-96) cell lines were monitored over time with the IncuCyte S3 (Sartiorius, Germany) in 384-well plates in 50 ul DMEM media, supplemented with 10% Fetal Bovine Serum (FBS) 1% penicillin/Streptomycin and incubated 24 h before treatment. Experiment was performed as described in Cano-Franco et al.. […] Cell confluence is represented as % of area covered by cells. Each data point represents the average ratio or confluence obtained from three individual wells of the plate.

[2] = tested on: RPE1 cells; test: Cell growth assay (IncuCyte confluence over 72 h); type: cell-based
Method: Cell growth assay: Cell confluence (phase) from RPE1 (hTERT RPE-1, ATCC CLR_4000) or U2OS (ATCC, HTB-96) cell lines were monitored over time with the IncuCyte S3 (Sartiorius, Germany) in 384-well plates in 50 ul DMEM media, supplemented with 10% Fetal Bovine Serum (FBS) 1% penicillin/Streptomycin and incubated 24 h before treatment. Experiment was performed as described in Cano-Franco et al.. 50 μl of media containing either 2× final concentration of indicated compounds in or control compounds (final conc.: 0.1% DMSO, 250 nM Torin1, 200 ng/mL Bafilomycin) were added and images were taken every two hours over 72 h. Cell confluence is represented as % of area covered by cells. Each data point represents the average ratio or confluence obtained from three individual wells of the plate.

[3] = target: LC3A (Homo sapiens, UniProt Q9H492); test: Isothermal titration calorimetry (ITC); type: binding; settings: LC3A; read-out: KD (ITC)
Excerpt: To minimize nonspecific dilution heat effects, DMSO concentrations in the protein and compound samples were matched. […] For this protocol, the chamber was pre-equilibrated with the protein, and the test compounds were titrated while continuously measuring the rate of exothermic heat evolution. The heat of binding was integrated, corrected, and fitted to an independent single-binding site model based on the manufacturer’s instructions, from which thermodynamic parameters (ΔH and TΔS), equilibrium association and dissociation constants (KA and KD, respectively), and stoichiometry (n) were calculated using TA Instruments NanoAnalyze software.

**Q.** `CO[C@@H]1[C@@H](OC(N)=O)[C@@H](O)[C@H](Oc2ccc3c(O)c(NC(=O)c4ccc(O)c(CC=C(C)C)c4)c(=O)oc3c2C)OC1(C)C` [compound 12, Novobiocin] was tested. Which U2OS cell growth ([1]; 100 nM, time 10 h) did it give?
**A.** The U2OS cell growth was 31.1029 and 33.4179 and 23.7087.

**Q.** And the U2OS cell growth ([1]; 100 nM, time 0 h)?
**A.** The U2OS cell growth was 19.136 and 22.8325 and 13.4185.

**Q.** What about the U2OS cell growth ([1]; 100 nM, time 2 h) of the same molecule?
**A.** Its U2OS cell growth is 26.0593 and 27.2796 and 22.6674.

**Q.** And the U2OS cell growth ([1]; 100 nM, time 4 h)?
**A.** Its U2OS cell growth is 30.3299 and 25.4304 and 21.2335.

**Q.** And the U2OS cell growth ([1]; 100 nM, time 6 h)?
**A.** Its U2OS cell growth is 27.5347 and 27.1928 and 26.8694.

**Q.** And the U2OS cell growth ([1]; 100 nM, time 8 h)?
**A.** Its U2OS cell growth is 31.7442 and 25.9761 and 21.578.

**Q.** What about the U2OS cell growth ([1]; 500 nM, time 0 h) of the same molecule?
**A.** The U2OS cell growth was 26.2226 and 29.6942 and 26.7407.

**Q.** And the U2OS cell growth ([1]; 500 nM, time 2 h)?
**A.** The U2OS cell growth was 28.1697 and 29.3576 and 35.4881.

**Q.** And the U2OS cell growth ([1]; 500 nM, time 4 h)?
**A.** Its U2OS cell growth is 24.6559 and 29.8656 and 34.6982.

**Q.** What about the U2OS cell growth ([1]; 500 nM, time 6 h) of the same molecule?
**A.** Its U2OS cell growth is 27.3788 and 36.5331 and 38.1104.

**Q.** What about the U2OS cell growth ([1]; 1 uM, time 12 h) of the same molecule?
**A.** Its U2OS cell growth is 42.1826.

**Q.** And the U2OS cell growth ([1]; 1 uM, time 0 h)?
**A.** Its U2OS cell growth is 33.676 and 37.1441 and 40.8786.

**Q.** And the U2OS cell growth ([1]; 1 uM, time 2 h)?
**A.** The U2OS cell growth was 36.3349 and 37.5509 and 45.2384.

**Q.** What about the U2OS cell growth ([1]; 1 uM, time 4 h) of the same molecule?
**A.** Its U2OS cell growth is 33.5211 and 30.275 and 38.1541.

**Q.** What about the U2OS cell growth ([1]; 1 uM, time 6 h) of the same molecule?
**A.** Its U2OS cell growth is 37.9722 and 40.3217 and 48.2479.

**Q.** What about the U2OS cell growth ([1]; 3 uM, time 10 h) of the same molecule?
**A.** Its U2OS cell growth is 50.7454 and 57.0193 and 59.2136.

**Q.** What about the U2OS cell growth ([1]; 3 uM, time 12 h) of the same molecule?
**A.** The U2OS cell growth was 41.453 and 34.0715 and 58.5093.

**Q.** And the U2OS cell growth ([1]; 3 uM, time 0 h)?
**A.** The U2OS cell growth was 41.5291 and 47.819 and 45.1855.

**Q.** What about the U2OS cell growth ([1]; 3 uM, time 2 h) of the same molecule?
**A.** The U2OS cell growth was 44.8462 and 48.6747 and 48.1364.

**Q.** And the U2OS cell growth ([1]; 3 uM, time 4 h)?
**A.** The U2OS cell growth was 43.175 and 44.1535 and 45.8798.

**Q.** What about the U2OS cell growth ([1]; 3 uM, time 6 h) of the same molecule?
**A.** The U2OS cell growth was 48.3538 and 51.3151 and 53.1755.

**Q.** What about the U2OS cell growth ([1]; 3 uM, time 8 h) of the same molecule?
**A.** The U2OS cell growth was 48.5002 and 53.1189 and 54.8109.

**Q.** And the U2OS cell growth ([1]; 5 uM, time 10 h)?
**A.** The U2OS cell growth was 57.6709 and 52.4954 and 56.7999.

**Q.** And the U2OS cell growth ([1]; 5 uM, time 0 h)?
**A.** Its U2OS cell growth is 41.1202 and 38.7556 and 46.8996.

**Q.** And the U2OS cell growth ([1]; 5 uM, time 2 h)?
**A.** The U2OS cell growth was 48.6568 and 43.7565 and 48.1243.

**Q.** And the U2OS cell growth ([1]; 5 uM, time 4 h)?
**A.** The U2OS cell growth was 49.6825 and 47.505 and 46.9675.

**Q.** And the U2OS cell growth ([1]; 5 uM, time 6 h)?
**A.** Its U2OS cell growth is 52.2007 and 50.4885 and 57.3887.

**Q.** And the U2OS cell growth ([1]; 5 uM, time 8 h)?
**A.** The U2OS cell growth was 51.5745 and 47.2991 and 53.416.

**Q.** What about the U2OS cell growth ([1]; 10 uM, time 10 h) of the same molecule?
**A.** The U2OS cell growth was 46.9907 and 34.892 and 44.8825.

**Q.** And the U2OS cell growth ([1]; 10 uM, time 0 h)?
**A.** The U2OS cell growth was 34.3842 and 28.0059 and 32.3826.

**Q.** What about the U2OS cell growth ([1]; 10 uM, time 2 h) of the same molecule?
**A.** The U2OS cell growth was 40.1489 and 30.903 and 35.6928.

**Q.** What about the U2OS cell growth ([1]; 10 uM, time 4 h) of the same molecule?
**A.** The U2OS cell growth was 42.2655 and 32.6525 and 40.3474.

**Q.** What about the U2OS cell growth ([1]; 10 uM, time 6 h) of the same molecule?
**A.** Its U2OS cell growth is 45.1844 and 33.7835 and 42.5534.

**Q.** And the U2OS cell growth ([1]; 10 uM, time 8 h)?
**A.** The U2OS cell growth was 38.9614 and 32.8145 and 39.1419.

**Q.** And the RPE1 cell growth ([2]; 100 nM, 0 h)?
**A.** The RPE1 cell growth was 25 and 15.

**Q.** And the RPE1 cell growth ([2]; 100 nM, 2 h)?
**A.** The RPE1 cell growth was 26 and 15 and 17.

**Q.** What about the RPE1 cell growth ([2]; 100 nM, 4 h) of the same molecule?
**A.** Its RPE1 cell growth is 29 and 17 and 18.

**Q.** What about the RPE1 cell growth ([2]; 100 nM, 6 h) of the same molecule?
**A.** The RPE1 cell growth was 30 and 18.

**Q.** What about the RPE1 cell growth ([2]; 100 nM, 8 h) of the same molecule?
**A.** Its RPE1 cell growth is 33 and 18 and 20.

**Q.** What about the RPE1 cell growth ([2]; 100 nM, 10 h) of the same molecule?
**A.** Its RPE1 cell growth is 36 and 19 and 21.

**Q.** And the RPE1 cell growth ([2]; 500 nM, 0 h)?
**A.** The RPE1 cell growth was 27 and 16 and 18.

**Q.** What about the RPE1 cell growth ([2]; 500 nM, 2 h) of the same molecule?
**A.** The RPE1 cell growth was 32 and 16 and 20.

**Q.** What about the RPE1 cell growth ([2]; 500 nM, 4 h) of the same molecule?
**A.** The RPE1 cell growth was 32 and 18 and 22.

**Q.** And the RPE1 cell growth ([2]; 500 nM, 6 h)?
**A.** The RPE1 cell growth was 35 and 18 and 22.

**Q.** What about the RPE1 cell growth ([2]; 500 nM, 8 h) of the same molecule?
**A.** The RPE1 cell growth was 38 and 20 and 23.

**Q.** And the RPE1 cell growth ([2]; 500 nM, 10 h)?
**A.** Its RPE1 cell growth is 39 and 21.

**Q.** What about the RPE1 cell growth ([2]; 1 uM, 0 h) of the same molecule?
**A.** The RPE1 cell growth was 18 and 23 and 20.

**Q.** And the RPE1 cell growth ([2]; 1 uM, 2 h)?
**A.** Its RPE1 cell growth is 20 and 26 and 21.

**Q.** What about the RPE1 cell growth ([2]; 1 uM, 4 h) of the same molecule?
**A.** Its RPE1 cell growth is 22 and 28 and 21.

**Q.** What about the RPE1 cell growth ([2]; 1 uM, 6 h) of the same molecule?
**A.** Its RPE1 cell growth is 23 and 32.

**Q.** What about the RPE1 cell growth ([2]; 1 uM, 8 h) of the same molecule?
**A.** Its RPE1 cell growth is 26 and 35 and 25.

**Q.** And the RPE1 cell growth ([2]; 1 uM, 10 h)?
**A.** Its RPE1 cell growth is 27.

**Q.** What about the RPE1 cell growth ([2]; 3 uM, 0 h) of the same molecule?
**A.** The RPE1 cell growth was 27 and 19 and 22.

**Q.** And the RPE1 cell growth ([2]; 3 uM, 2 h)?
**A.** Its RPE1 cell growth is 31 and 19 and 24.

**Q.** And the RPE1 cell growth ([2]; 3 uM, 4 h)?
**A.** Its RPE1 cell growth is 33 and 20 and 27.

**Q.** What about the RPE1 cell growth ([2]; 3 uM, 6 h) of the same molecule?
**A.** The RPE1 cell growth was 37 and 22 and 28.

**Q.** What about the RPE1 cell growth ([2]; 3 uM, 8 h) of the same molecule?
**A.** Its RPE1 cell growth is 41 and 24 and 30.

**Q.** And the RPE1 cell growth ([2]; 3 uM, 10 h)?
**A.** The RPE1 cell growth was 40 and 26 and 31.

**Q.** What about the RPE1 cell growth ([2]; 5 uM, 0 h) of the same molecule?
**A.** The RPE1 cell growth was 24 and 20.

**Q.** And the RPE1 cell growth ([2]; 5 uM, 2 h)?
**A.** The RPE1 cell growth was 28 and 22 and 24.

**Q.** What about the RPE1 cell growth ([2]; 5 uM, 4 h) of the same molecule?
**A.** Its RPE1 cell growth is 31 and 22 and 26.

**Q.** What about the RPE1 cell growth ([2]; 5 uM, 6 h) of the same molecule?
**A.** Its RPE1 cell growth is 34 and 23 and 27.

**Q.** What about the RPE1 cell growth ([2]; 5 uM, 8 h) of the same molecule?
**A.** The RPE1 cell growth was 36 and 26 and 28.

**Q.** And the RPE1 cell growth ([2]; 5 uM, 10 h)?
**A.** The RPE1 cell growth was 35 and 26 and 30.

**Q.** And the RPE1 cell growth ([2]; 10 uM, 0 h)?
**A.** Its RPE1 cell growth is 22 and 24 and 16.

**Q.** What about the RPE1 cell growth ([2]; 10 uM, 2 h) of the same molecule?
**A.** Its RPE1 cell growth is 24 and 19.

**Q.** And the RPE1 cell growth ([2]; 10 uM, 4 h)?
**A.** Its RPE1 cell growth is 26 and 24 and 20.

**Q.** And the RPE1 cell growth ([2]; 10 uM, 6 h)?
**A.** The RPE1 cell growth was 29 and 25 and 23.

**Q.** And the RPE1 cell growth ([2]; 10 uM, 8 h)?
**A.** The RPE1 cell growth was 32 and 28 and 23.

**Q.** What about the RPE1 cell growth ([2]; 10 uM, 10 h) of the same molecule?
**A.** The RPE1 cell growth was 32 and 28 and 26.

**Q.** `CCCCCCC(Sc1nc(Cl)cc(Nc2nc(-c3ccc(C(=O)O)cc3)cs2)n1)C(=O)O` (centres unmarked) [compound 21] was tested. Which Kd [3] did it give?
**A.** The Kd was 2000 nM.
